Square brackets hold non-standard residues; d marks the D form. Peptide text beside a SMILES is read from it.
How the values were obtained:
[1] = Permeability across human Caco-2 cell monolayer; assay type: ADME, cell-based
Integrin alpha-5/beta-1 = Integrin alpha-5/beta-1 (Homo sapiens, UniProt P05556+P08648); test: Binding affinity to integrin alpha-5-beta-1 receptor by solid phase binding assay; assay type: protein-complex assay
Integrin alpha-V/beta-3 = Integrin alpha-V/beta-3 (Homo sapiens, UniProt P05106+P06756); test: Binding affinity to integrin alpha-v-beta-3 receptor by solid phase binding assay; assay type: protein-complex assay
Sequence of Integrin alpha-V/beta-3 (P05106 27-788 limits assumed): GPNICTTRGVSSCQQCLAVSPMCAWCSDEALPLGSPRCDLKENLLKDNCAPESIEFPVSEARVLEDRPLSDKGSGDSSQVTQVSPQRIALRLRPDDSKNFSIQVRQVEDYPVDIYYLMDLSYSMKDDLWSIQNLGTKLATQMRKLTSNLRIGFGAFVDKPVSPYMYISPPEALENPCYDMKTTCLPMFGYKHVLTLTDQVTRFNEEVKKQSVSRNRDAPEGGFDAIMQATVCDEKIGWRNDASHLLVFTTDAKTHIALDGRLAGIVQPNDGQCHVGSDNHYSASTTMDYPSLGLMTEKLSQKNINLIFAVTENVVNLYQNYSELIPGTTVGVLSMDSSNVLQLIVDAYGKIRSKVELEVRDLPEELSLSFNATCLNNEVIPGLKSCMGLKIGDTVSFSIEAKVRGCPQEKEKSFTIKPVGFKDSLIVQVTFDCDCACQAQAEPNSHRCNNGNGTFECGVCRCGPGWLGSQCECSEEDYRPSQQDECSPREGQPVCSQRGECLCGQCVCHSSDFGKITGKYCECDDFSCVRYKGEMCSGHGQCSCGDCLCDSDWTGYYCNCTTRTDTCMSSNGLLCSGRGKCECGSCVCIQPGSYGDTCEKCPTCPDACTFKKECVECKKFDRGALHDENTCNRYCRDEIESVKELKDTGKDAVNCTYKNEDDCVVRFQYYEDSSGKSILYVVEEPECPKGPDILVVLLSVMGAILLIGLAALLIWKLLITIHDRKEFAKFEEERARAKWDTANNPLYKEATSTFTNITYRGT
Sequence of Integrin alpha-V/beta-3 (P06756 31-889 limits assumed): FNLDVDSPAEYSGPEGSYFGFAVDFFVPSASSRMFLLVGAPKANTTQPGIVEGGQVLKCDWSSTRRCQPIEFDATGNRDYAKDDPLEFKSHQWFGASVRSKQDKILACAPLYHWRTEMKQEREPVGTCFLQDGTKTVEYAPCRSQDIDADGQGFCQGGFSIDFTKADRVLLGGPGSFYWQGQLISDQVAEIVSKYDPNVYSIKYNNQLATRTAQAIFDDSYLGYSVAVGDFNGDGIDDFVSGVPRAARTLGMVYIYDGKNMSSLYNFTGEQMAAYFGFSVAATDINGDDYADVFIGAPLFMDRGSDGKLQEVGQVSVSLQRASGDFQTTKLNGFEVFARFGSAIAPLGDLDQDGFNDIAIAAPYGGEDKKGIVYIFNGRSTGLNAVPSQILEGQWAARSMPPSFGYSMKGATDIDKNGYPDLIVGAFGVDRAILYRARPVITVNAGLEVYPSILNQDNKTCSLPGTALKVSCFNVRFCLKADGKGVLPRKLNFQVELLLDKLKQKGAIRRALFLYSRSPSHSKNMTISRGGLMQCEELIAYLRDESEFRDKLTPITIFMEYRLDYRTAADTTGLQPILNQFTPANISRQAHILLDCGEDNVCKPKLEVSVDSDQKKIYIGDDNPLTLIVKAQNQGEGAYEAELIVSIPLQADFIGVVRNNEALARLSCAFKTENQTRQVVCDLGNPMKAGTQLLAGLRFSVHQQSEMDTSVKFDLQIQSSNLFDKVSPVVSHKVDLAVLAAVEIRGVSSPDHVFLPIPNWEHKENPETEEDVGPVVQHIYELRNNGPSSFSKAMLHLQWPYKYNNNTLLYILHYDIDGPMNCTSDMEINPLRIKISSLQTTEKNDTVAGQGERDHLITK
Sequence of Integrin alpha-V/beta-3 (P06756 891-1048 limits assumed): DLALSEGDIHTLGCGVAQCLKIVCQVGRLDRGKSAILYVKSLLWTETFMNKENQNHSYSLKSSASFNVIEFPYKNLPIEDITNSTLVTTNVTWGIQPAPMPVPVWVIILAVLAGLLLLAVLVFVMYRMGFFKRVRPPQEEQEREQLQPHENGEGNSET

[2] = target: Integrin alpha-IIb/beta-3 (Homo sapiens, UniProt P05106+P08514); test: Binding affinity to integrin alpha-2b-beta-3 receptor by solid phase binding assay; assay type: protein-complex assay
Sequence of Integrin alpha-IIb/beta-3 (P05106 27-788 limits assumed): as the sequence (P05106 27-788 limits assumed) above
Sequence of Integrin alpha-IIb/beta-3 (P08514 32-887 limits assumed): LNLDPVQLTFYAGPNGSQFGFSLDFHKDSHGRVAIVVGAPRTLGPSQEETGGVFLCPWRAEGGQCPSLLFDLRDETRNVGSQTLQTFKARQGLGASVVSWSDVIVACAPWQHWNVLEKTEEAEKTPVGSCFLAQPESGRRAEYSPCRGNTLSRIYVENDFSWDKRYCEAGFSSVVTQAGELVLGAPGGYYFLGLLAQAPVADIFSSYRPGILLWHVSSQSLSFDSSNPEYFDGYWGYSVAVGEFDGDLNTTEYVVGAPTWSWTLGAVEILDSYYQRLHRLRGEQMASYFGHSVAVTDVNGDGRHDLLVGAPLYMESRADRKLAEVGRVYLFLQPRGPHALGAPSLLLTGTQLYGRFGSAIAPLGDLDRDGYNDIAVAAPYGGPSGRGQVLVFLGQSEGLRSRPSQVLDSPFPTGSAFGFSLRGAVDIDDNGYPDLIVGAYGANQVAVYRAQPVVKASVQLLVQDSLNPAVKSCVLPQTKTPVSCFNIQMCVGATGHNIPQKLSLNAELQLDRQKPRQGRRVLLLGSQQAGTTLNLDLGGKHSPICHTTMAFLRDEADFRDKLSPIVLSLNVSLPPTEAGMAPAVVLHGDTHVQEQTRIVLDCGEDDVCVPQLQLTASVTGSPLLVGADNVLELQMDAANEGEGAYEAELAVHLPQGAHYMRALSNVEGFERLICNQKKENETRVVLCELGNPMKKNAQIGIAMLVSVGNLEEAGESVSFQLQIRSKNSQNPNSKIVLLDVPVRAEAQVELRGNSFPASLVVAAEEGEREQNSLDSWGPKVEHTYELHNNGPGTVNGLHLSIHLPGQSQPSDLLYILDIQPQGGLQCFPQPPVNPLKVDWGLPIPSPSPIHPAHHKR
Sequence of Integrin alpha-IIb/beta-3 (P08514 891-1039 limits assumed): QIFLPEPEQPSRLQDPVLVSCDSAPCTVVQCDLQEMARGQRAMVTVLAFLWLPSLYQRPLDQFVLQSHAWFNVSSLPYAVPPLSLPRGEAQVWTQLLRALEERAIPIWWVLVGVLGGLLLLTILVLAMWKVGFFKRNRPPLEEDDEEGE

Homo sapiens = organism: Homo sapiens; test: Selectivity for integrin alpha2bbeta3 receptor over integrin alphavbeta3 receptor

Sequence of Integrin alpha-5/beta-1 (P05556 21-798 limits assumed): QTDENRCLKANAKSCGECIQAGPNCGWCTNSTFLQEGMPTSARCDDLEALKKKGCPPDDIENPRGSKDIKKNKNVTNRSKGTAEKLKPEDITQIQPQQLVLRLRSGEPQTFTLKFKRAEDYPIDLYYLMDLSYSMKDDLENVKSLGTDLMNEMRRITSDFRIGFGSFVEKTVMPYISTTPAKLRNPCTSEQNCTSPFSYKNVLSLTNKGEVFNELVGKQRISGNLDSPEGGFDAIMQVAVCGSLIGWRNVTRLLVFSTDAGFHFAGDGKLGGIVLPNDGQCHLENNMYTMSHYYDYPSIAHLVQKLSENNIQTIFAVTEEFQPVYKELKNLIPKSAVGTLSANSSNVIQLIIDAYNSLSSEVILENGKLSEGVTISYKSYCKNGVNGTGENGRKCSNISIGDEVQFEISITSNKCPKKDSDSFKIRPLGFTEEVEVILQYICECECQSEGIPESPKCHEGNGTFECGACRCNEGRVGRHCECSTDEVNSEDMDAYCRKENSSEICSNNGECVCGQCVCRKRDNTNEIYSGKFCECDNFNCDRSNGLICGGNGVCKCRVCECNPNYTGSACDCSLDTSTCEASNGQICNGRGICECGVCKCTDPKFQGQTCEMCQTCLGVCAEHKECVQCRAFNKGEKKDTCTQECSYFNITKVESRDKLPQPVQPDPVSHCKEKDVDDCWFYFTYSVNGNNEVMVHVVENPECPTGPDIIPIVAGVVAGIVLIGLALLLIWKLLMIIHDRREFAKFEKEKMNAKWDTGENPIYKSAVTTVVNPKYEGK
Sequence of Integrin alpha-5/beta-1 (P08648 42-894 limits assumed): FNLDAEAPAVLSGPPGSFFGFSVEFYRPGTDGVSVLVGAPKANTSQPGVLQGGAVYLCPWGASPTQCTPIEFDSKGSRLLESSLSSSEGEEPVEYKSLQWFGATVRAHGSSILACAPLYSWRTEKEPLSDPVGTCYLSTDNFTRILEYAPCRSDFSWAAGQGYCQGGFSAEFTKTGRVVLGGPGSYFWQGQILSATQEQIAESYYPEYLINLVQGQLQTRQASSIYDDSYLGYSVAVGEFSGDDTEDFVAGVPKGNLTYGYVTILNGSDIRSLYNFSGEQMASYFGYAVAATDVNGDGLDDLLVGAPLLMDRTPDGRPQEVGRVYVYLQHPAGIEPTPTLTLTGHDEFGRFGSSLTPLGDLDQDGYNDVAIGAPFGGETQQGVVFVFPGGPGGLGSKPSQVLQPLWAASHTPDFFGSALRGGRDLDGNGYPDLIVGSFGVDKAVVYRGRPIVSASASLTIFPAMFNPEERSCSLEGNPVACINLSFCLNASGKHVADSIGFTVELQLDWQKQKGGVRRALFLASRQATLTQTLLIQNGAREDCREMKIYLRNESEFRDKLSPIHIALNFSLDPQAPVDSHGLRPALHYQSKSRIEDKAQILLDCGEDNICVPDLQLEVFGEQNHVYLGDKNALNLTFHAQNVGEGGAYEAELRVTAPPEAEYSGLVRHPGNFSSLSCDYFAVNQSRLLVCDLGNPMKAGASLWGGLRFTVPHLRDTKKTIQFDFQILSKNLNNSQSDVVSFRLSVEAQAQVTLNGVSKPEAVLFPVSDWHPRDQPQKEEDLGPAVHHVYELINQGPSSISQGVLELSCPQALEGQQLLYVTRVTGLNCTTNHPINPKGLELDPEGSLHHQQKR
Sequence of Integrin alpha-5/beta-1 (P08648 895-1049 limits assumed): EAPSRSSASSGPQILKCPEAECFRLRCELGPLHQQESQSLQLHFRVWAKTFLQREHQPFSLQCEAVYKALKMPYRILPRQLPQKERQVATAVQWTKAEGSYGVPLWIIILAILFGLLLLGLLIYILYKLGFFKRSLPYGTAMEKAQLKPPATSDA

Papp [1] [nm/s]	IC50 (Integrin alpha-5/beta-1) [µM]	IC50 (Integrin alpha-V/beta-3) [µM]	IC50 [2] [µM]	Ratio IC50 (Homo sapiens)	Compound
0.3	1.2	0.77	0.012	–	CC(C)C[C@@H]1NC(=O)[C@@H](Cc2ccccc2)NC(=O)[C@H](CC(=O)O)NC(=O)CNC(=O)[C@H](CCCN=C(N)N)N(C)C(=O)CNC1=O
0.3	> 20	12.2	0.03	–	CC(C)C[C@H]1C(=O)NCC(=O)N(C)[C@@H](CCCN=C(N)N)C(=O)NCC(=O)N[C@@H](CC(=O)O)C(=O)N(C)[C@H](Cc2ccccc2)C(=O)N1C
0.3	> 20	2.73	0.165	16	CC(C)C[C@@H]1NC(=O)[C@@H](Cc2ccccc2)N(C)C(=O)[C@H](CC(=O)O)NC(=O)CNC(=O)[C@H](CCCNC(=N)N)N(C)C(=O)CNC1=O
–	–	–	–	2	CC(C)C[C@H]1C(=O)NCC(=O)N[C@@H](CCCNC(=N)N)C(=O)NCC(=O)N[C@@H](CC(=O)O)C(=O)N(C)[C@H](Cc2ccccc2)C(=O)N1C
0.3	0.74	0.1	0.195	0.5	CC(C)C[C@@H]1NC(=O)[C@@H](Cc2ccccc2)NC(=O)[C@H](CC(=O)O)NC(=O)CNC(=O)[C@H](CCCNC(=N)N)NC(=O)CNC1=O (cyclo(GRGD[dF]L))
0.3	> 20	1.2	0.62	–	CC(C)C[C@H]1C(=O)NCC(=O)N[C@@H](CCCN=C(N)N)C(=O)NCC(=O)N[C@@H](CC(=O)O)C(=O)N(C)[C@H](Cc2ccccc2)C(=O)N1C
–	–	–	–	0.2	CC(C)C[C@@H]1NC(=O)[C@@H](Cc2ccccc2)N(C)C(=O)[C@H](CC(=O)O)NC(=O)CNC(=O)[C@H](CCCNC(=N)N)NC(=O)CNC1=O
–	–	–	–	0.2	CC(C)C[C@H]1C(=O)NCC(=O)N[C@@H](CCCNC(=N)N)C(=O)NCC(=O)N[C@@H](CC(=O)O)C(=O)N[C@H](Cc2ccccc2)C(=O)N1C
0.3	4.3	0.49	2	–	CC(C)C[C@@H]1NC(=O)[C@@H](Cc2ccccc2)N(C)C(=O)[C@H](CC(=O)O)NC(=O)CNC(=O)[C@H](CCCN=C(N)N)NC(=O)CNC1=O
–	–	–	–	406	CC(C)C[C@H]1C(=O)NCC(=O)N(C)[C@@H](CCCNC(=N)N)C(=O)NCC(=O)N[C@@H](CC(=O)O)C(=O)N(C)[C@H](Cc2ccccc2)C(=O)N1C
0.3	3.9	0.103	0.56	–	CC(C)C[C@H]1C(=O)NCC(=O)N[C@@H](CCCN=C(N)N)C(=O)NCC(=O)N[C@@H](CC(=O)O)C(=O)N[C@H](Cc2ccccc2)C(=O)N1C
0.3	20	1.3	0.015	86	CC(C)C[C@H]1C(=O)NCC(=O)N(C)[C@@H](CCCNC(=N)N)C(=O)NCC(=O)N[C@@H](CC(=O)O)C(=O)N[C@H](Cc2ccccc2)C(=O)N1C
9	–	–	–	–	OC[C@@H](O)[C@@H](O)[C@H](O)[C@H](O)CO [MANNITOL]
–	–	–	–	64	CC(C)C[C@@H]1NC(=O)[C@@H](Cc2ccccc2)NC(=O)[C@H](CC(=O)O)NC(=O)CNC(=O)[C@H](CCCNC(=N)N)N(C)C(=O)CNC1=O

Reference: ChEMBL document CHEMBL1138295, “Multiple N-methylation by a designed approach enhances receptor selectivity” (J Med Chem, 2007)
